Reference: PMC3694096, “Development of Novel In Vivo Chemical Probes to Address CNS Protein Kinase Involvement in Synaptic Dysfunction” (PLoS ONE, 2013)
Like-named read-outs stand apart in the source and are kept apart here.

What was measured:
[1] = test system: >290 mammalian kinases; assay: Hierarchal large-scale kinome screen, overall outcome; format: biochemical; settings: overall outcome in words
[2] = target: T1, TAK1 (Homo sapiens, UniProt O43318); assay: Kinome profiler screen; format: biochemical; settings: at 20,000 nM inhibitor; kinase activity remaining
T1 construct: purchased Millipore KinaseProfiler

[3] = target: T2, PDGFRβ (Homo sapiens, UniProt P09619); assay: Kinome profiler screen; format: biochemical; settings: at 20,000 nM inhibitor; kinase activity remaining
T2 construct: purchased Millipore KinaseProfiler
T2 sequence (P09619 33-1106): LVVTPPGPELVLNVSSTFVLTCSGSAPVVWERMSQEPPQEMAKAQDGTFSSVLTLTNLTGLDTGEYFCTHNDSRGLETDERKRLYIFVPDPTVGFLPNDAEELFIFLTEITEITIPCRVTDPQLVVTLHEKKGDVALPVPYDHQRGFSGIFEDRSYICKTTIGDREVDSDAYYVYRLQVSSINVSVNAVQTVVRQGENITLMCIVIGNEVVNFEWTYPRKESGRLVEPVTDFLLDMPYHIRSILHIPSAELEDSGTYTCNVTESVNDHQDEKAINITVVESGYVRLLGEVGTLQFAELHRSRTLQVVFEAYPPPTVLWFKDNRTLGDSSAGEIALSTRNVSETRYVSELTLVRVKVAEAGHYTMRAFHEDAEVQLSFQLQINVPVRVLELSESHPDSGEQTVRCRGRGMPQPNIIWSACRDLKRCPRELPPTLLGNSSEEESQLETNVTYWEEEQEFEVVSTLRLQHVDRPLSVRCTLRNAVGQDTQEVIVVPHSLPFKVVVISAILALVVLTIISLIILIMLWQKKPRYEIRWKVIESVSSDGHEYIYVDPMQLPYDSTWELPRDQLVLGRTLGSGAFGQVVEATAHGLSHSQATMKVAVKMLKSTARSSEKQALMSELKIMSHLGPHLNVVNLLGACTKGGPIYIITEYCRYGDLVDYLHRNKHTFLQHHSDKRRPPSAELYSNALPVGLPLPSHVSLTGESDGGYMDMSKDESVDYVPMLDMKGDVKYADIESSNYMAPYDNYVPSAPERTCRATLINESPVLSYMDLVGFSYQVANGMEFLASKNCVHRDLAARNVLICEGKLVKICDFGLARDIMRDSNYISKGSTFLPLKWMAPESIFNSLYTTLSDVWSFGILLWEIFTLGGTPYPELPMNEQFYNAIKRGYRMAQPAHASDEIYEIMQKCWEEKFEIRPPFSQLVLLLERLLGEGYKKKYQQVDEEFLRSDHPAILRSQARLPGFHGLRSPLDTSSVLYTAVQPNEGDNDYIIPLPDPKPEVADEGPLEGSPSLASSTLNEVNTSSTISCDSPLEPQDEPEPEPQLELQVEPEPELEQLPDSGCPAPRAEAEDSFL

[4] = target: T3, Src(T341M) (Homo sapiens, UniProt P12931, T341M); assay: Kinome profiler screen; format: biochemical; settings: at 20,000 nM inhibitor; kinase activity remaining
T3 construct: purchased Millipore KinaseProfiler

[5] = target: T4, FGFR2(N549H) (Homo sapiens, UniProt P21802, N549H); assay: Kinome profiler screen; format: biochemical; settings: at 20,000 nM inhibitor; kinase activity remaining
T4 construct: purchased Millipore KinaseProfiler

[6] = target: T5, IRAK1 (Homo sapiens, UniProt P51617); assay: Kinome profiler screen; format: biochemical; settings: at 20,000 nM inhibitor; kinase activity remaining
T5 construct: purchased Millipore KinaseProfiler

[7] = target: T6, PIP5K1γ (Homo sapiens, UniProt O60331); assay: Kinome profiler screen; format: biochemical; settings: at 20,000 nM inhibitor; kinase activity remaining
T6 construct: purchased Millipore KinaseProfiler

[8] = target: T7, GRK7 (Homo sapiens, UniProt Q8WTQ7); assay: Kinome profiler screen; format: biochemical
T7 construct: purchased Millipore KinaseProfiler

[9] = target: T8, MINK (Homo sapiens, UniProt Q8N4C8); assay: Kinome profiler screen; format: biochemical; settings: at 20,000 nM inhibitor; kinase activity remaining
T8 construct: purchased Millipore KinaseProfiler

[10] = target: T9, Abl(T315I) (Homo sapiens, UniProt P00519, T315I); assay: Kinome profiler screen; format: biochemical; settings: at 20,000 nM inhibitor; kinase activity remaining
T9 construct: purchased Millipore KinaseProfiler

[11] = target: T10, MRCKβ (Homo sapiens, UniProt Q9Y5S2); assay: Kinome profiler screen; format: biochemical; settings: at 20,000 nM inhibitor; kinase activity remaining
T10 construct: purchased Millipore KinaseProfiler

[12] = target: T11, PKCδ (Homo sapiens, UniProt Q05655); assay: Kinome profiler screen; format: biochemical; settings: at 20,000 nM inhibitor; kinase activity remaining
T11 construct: purchased Millipore KinaseProfiler

[13] = test system: CA3-CA1 long-term potentiation; assay: LTP in Aβ42-treated hippocampal brain slices; design: species or system mice; settings: 10 µM compound, 200 nM Aβ42
[14] = target: T12, PKCμ (Homo sapiens, UniProt Q15139); assay: Kinome profiler screen; format: biochemical; settings: at 20,000 nM inhibitor; kinase activity remaining
T12 construct: purchased Millipore KinaseProfiler

[15] = target: T13, PrKX (Homo sapiens, UniProt P51817); assay: Kinome profiler screen; format: biochemical; settings: at 20,000 nM inhibitor; kinase activity remaining
T13 construct: purchased Millipore KinaseProfiler

[16] = target: T14, cSRC (Homo sapiens, UniProt P12931); assay: Kinome profiler screen; format: biochemical; settings: at 20,000 nM inhibitor; kinase activity remaining
T14 construct: purchased Millipore KinaseProfiler

[17] = target: T15, PKCγ (Homo sapiens, UniProt P05129); assay: Kinome profiler screen; format: biochemical; settings: at 20,000 nM inhibitor; kinase activity remaining
T15 construct: purchased Millipore KinaseProfiler

[18] = target: T16, PKG1α (Homo sapiens, UniProt Q13976); assay: Kinome profiler screen; format: biochemical; settings: at 20,000 nM inhibitor; kinase activity remaining
T16 construct: purchased Millipore KinaseProfiler

[19] = target: T17, AMPKα2 (Homo sapiens, UniProt P54646); assay: Kinome profiler screen; format: biochemical; settings: at 20,000 nM inhibitor; kinase activity remaining
T17 construct: purchased Millipore KinaseProfiler

[20] = target: T18, FAK (Homo sapiens, UniProt Q05397); assay: Kinome profiler screen; format: biochemical; settings: at 20,000 nM inhibitor; kinase activity remaining
T18 construct: purchased Millipore KinaseProfiler

[21] = target: T19, MAPK2(m) (Mus musculus, UniProt P63085); assay: Kinome profiler screen; format: biochemical; settings: at 20,000 nM inhibitor; kinase activity remaining
T19 construct: purchased Millipore KinaseProfiler

[22] = target: T20, Ros (Homo sapiens, UniProt P08922); assay: Kinome profiler screen; format: biochemical; settings: at 20,000 nM inhibitor; kinase activity remaining
T20 construct: purchased Millipore KinaseProfiler

[23] = target: T21, EphA7 (Homo sapiens, UniProt Q15375); assay: Kinome profiler screen; format: biochemical; settings: for activity at 20 µM: at 20,000 nM inhibitor, kinase activity remaining
T21 construct: purchased Millipore
T21 sequence (Q15375 28-998): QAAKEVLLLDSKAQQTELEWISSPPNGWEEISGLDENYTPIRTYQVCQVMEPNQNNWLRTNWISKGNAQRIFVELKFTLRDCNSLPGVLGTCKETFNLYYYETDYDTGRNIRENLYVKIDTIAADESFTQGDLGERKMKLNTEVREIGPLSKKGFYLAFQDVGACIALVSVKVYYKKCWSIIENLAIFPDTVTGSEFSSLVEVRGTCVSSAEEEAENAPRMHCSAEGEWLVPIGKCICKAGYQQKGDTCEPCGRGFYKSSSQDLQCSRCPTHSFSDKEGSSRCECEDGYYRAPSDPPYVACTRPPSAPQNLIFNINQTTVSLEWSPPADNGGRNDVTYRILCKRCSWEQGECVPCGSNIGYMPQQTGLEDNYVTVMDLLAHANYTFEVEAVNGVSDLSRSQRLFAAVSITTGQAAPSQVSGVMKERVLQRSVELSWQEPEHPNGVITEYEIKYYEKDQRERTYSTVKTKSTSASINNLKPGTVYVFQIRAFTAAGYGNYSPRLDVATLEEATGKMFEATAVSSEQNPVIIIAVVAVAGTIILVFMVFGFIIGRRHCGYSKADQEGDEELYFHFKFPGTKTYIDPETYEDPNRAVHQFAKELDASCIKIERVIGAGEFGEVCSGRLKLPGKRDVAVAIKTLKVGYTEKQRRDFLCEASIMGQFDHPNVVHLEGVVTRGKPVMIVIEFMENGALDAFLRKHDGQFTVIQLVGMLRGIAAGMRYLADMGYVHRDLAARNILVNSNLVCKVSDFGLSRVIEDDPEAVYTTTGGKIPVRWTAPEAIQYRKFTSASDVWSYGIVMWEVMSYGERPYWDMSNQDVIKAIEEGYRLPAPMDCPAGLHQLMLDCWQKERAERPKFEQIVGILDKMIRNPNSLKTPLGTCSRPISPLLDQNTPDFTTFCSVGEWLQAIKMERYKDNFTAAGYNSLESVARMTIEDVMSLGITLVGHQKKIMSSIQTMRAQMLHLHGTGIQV

[24] = target: T22, GSK3α (Homo sapiens, UniProt P49840); assay: Kinome profiler screen; format: biochemical; settings: at 20,000 nM inhibitor; kinase activity remaining
T22 construct: purchased Millipore KinaseProfiler

[25] = target: T23, PDGFRα(V561D) (Homo sapiens, UniProt P16234, V561D); assay: Kinome profiler screen; format: biochemical
T23 construct: purchased Millipore KinaseProfiler

[26] = target: T24, PRK2 (Homo sapiens, UniProt Q16513); assay: Kinome profiler screen; format: biochemical; settings: at 20,000 nM inhibitor; kinase activity remaining
T24 construct: purchased Millipore KinaseProfiler

[27] = target: T25, EGFR(T790M,L858R) (Homo sapiens, UniProt P00533, L858R/T790M); assay: Kinome profiler screen; format: biochemical; settings: at 20,000 nM inhibitor; kinase activity remaining
T25 construct: purchased Millipore KinaseProfiler

[28] = target: T26, KDR (Homo sapiens, UniProt P35968); assay: Kinome profiler screen; format: biochemical; settings: at 20,000 nM inhibitor; kinase activity remaining
T26 construct: purchased Millipore KinaseProfiler

[29] = target: T27, MST1 (Homo sapiens, UniProt Q13043); assay: Kinome profiler screen; format: biochemical; settings: at 20,000 nM inhibitor; kinase activity remaining
T27 construct: purchased Millipore KinaseProfiler

[30] = target: T28, PKBβ (Homo sapiens, UniProt P31751); assay: Kinome profiler screen; format: biochemical; settings: at 20,000 nM inhibitor; kinase activity remaining
T28 construct: purchased Millipore KinaseProfiler
T28 sequence (P31751 whole entry): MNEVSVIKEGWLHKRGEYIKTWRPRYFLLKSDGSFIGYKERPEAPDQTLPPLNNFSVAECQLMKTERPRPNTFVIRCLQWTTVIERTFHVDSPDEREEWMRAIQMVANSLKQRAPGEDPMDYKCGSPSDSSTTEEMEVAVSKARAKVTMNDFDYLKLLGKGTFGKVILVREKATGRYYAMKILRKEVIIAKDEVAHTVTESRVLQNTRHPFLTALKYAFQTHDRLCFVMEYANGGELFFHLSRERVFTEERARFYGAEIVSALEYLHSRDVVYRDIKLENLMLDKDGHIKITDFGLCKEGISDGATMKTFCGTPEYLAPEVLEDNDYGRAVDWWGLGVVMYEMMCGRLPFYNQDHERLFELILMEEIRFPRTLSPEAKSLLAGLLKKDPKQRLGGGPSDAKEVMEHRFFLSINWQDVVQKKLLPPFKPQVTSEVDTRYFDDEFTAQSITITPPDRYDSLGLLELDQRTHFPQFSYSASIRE

[31] = target: T29, CDK3/cyclinE (Homo sapiens, UniProt Q00526); assay: Kinome profiler screen; format: biochemical; settings: at 20,000 nM inhibitor; kinase activity remaining
T29 construct: purchased Millipore KinaseProfiler
T29 sequence (Q00526 whole entry): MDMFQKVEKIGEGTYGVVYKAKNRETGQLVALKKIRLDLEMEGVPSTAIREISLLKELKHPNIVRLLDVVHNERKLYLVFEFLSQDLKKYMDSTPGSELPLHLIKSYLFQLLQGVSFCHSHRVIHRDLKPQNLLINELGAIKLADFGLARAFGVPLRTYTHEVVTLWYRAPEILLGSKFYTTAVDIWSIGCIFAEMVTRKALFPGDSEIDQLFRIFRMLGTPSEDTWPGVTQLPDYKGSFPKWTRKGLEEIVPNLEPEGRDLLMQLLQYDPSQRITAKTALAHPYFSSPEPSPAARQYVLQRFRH
T29 sequence (P24864 whole entry partner): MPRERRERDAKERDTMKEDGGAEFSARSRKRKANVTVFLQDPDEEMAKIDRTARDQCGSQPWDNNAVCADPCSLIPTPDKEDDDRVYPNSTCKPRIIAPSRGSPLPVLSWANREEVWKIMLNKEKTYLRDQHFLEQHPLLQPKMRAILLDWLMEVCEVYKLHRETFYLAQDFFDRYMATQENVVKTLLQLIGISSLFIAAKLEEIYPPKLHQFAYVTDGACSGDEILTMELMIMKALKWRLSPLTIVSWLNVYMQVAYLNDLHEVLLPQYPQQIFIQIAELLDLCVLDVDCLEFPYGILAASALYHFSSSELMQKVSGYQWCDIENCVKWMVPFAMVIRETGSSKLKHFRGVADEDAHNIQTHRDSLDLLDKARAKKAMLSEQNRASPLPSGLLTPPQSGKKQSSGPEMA

[32] = target: T30, CK2 (Homo sapiens, UniProt P68400); assay: Kinome profiler screen; format: biochemical; settings: at 20,000 nM inhibitor; kinase activity remaining
T30 construct: purchased Millipore KinaseProfiler
T30 sequence (P68400 whole entry): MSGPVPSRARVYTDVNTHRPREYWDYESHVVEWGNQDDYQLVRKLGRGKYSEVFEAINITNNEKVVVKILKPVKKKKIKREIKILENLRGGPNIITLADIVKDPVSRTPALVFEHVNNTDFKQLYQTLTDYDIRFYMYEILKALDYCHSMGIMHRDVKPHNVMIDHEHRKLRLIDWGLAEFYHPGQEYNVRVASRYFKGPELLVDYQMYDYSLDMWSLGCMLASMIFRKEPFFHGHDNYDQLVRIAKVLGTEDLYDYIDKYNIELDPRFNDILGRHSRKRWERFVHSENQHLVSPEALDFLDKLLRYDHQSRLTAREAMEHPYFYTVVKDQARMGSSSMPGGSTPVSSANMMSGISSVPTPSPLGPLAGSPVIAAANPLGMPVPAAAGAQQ
T30 sequence (P67870 whole entry partner): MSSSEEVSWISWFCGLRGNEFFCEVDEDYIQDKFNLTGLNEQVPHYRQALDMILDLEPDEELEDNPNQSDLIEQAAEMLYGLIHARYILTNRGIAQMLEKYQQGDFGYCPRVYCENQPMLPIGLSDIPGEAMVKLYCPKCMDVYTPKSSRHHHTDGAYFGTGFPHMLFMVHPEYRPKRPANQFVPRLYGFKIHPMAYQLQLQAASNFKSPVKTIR

[33] = target: T31, Rsk4 (Homo sapiens, UniProt Q9UK32); assay: Kinome profiler screen; format: biochemical; settings: at 20,000 nM inhibitor; kinase activity remaining
T31 construct: purchased Millipore KinaseProfiler

[34] = target: T32, cKit(D816H) (Homo sapiens, UniProt P10721, D816H); assay: Kinome profiler screen; format: biochemical; settings: at 20,000 nM inhibitor; kinase activity remaining
T32 construct: purchased Millipore KinaseProfiler

[35] = target: T33, PIP5K1α (Homo sapiens, UniProt Q99755); assay: Kinome profiler screen; format: biochemical; settings: at 20,000 nM inhibitor; kinase activity remaining
T33 construct: purchased Millipore KinaseProfiler

[36] = target: T34, Syk (Homo sapiens, UniProt P43405); assay: Kinome profiler screen; format: biochemical; settings: at 20,000 nM inhibitor; kinase activity remaining
T34 construct: purchased Millipore KinaseProfiler

[37] = target: T35, CHK2 (Homo sapiens, UniProt O96017); assay: Kinome profiler screen; format: biochemical; settings: at 20,000 nM inhibitor; kinase activity remaining
T35 construct: purchased Millipore KinaseProfiler

[38] = target: T36, HIPK3 (Homo sapiens, UniProt Q9H422); assay: Kinome profiler screen; format: biochemical; settings: at 20,000 nM inhibitor; kinase activity remaining
T36 construct: purchased Millipore KinaseProfiler

[39] = target: T37, CDK9/cyclin T1 (Homo sapiens, UniProt P50750); assay: Kinome profiler screen; format: biochemical; settings: at 20,000 nM inhibitor; kinase activity remaining
T37 construct: purchased Millipore KinaseProfiler

[40] = target: T38, PKBα (Homo sapiens, UniProt P31749); assay: Kinome profiler screen; format: biochemical; settings: at 20,000 nM inhibitor; kinase activity remaining
T38 construct: purchased Millipore KinaseProfiler
T38 sequence (P31749 whole entry): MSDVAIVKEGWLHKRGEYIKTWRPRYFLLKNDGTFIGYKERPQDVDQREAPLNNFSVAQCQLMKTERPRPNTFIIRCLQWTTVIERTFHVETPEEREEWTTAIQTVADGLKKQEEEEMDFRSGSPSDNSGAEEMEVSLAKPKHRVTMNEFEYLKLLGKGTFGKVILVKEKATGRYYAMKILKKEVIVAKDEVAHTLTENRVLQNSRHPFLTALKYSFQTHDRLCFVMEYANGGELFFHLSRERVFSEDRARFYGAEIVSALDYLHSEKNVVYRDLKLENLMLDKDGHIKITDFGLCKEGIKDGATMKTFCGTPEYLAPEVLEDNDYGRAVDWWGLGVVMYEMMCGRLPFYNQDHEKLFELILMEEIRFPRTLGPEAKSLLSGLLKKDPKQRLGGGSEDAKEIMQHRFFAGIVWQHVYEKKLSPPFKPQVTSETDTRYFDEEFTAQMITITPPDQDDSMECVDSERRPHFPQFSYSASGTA

[41] = target: T39, JAK3 (Homo sapiens, UniProt P52333); assay: Kinome profiler screen; format: biochemical; settings: at 20,000 nM inhibitor; kinase activity remaining
T39 construct: purchased Millipore KinaseProfiler

[42] = test system: visual, motor and motivation deficits; assay: Visible platform test; format: in vivo, C57BL/6J mice; settings: control test
[43] = target: T40, MST3 (Homo sapiens, UniProt Q9Y6E0); assay: Kinome profiler screen; format: biochemical; settings: at 20,000 nM inhibitor; kinase activity remaining
T40 construct: purchased Millipore KinaseProfiler
T40 sequence (Q9Y6E0 whole entry): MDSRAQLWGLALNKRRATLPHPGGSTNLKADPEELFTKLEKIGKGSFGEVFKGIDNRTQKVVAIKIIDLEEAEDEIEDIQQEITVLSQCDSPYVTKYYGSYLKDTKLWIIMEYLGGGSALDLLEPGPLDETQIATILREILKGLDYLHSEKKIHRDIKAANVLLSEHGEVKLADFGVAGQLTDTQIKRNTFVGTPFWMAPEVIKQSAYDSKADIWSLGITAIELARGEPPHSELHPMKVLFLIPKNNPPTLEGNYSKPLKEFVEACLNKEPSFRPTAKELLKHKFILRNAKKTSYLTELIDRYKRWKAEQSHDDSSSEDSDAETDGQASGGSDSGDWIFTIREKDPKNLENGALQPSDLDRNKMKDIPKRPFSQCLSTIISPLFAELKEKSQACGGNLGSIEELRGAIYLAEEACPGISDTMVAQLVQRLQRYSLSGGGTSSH

[44] = at 20,000 nM inhibitor, kinase activity remaining, read-out: % Activity

CN(C)c1cc(-c2ccncc2)c(-c2cccc3ccccc23)nn1 [MW181, N,N-dimethyl-6-(naphthalen-1-yl)-5-(pyridin-4-yl)pyridazin-3-amine]
Large Scale Kinome Screen [1]: p38αMAPK, p38βMAPK, and the atypical p38 kinase NLK as primary targets
Large Scale Kinome Screen ([1]; listed as MW01-10-181SRM): negative except for the following MAPKs
activity at 20 µM [2]: 104%
activity at 20 µM [3]: 99%
activity at 20 µM [4]: 102%
activity at 20 µM [5]: 96%
activity at 20 µM [6]: 102%
activity at 20 µM [7]: 100%
activity at 20 µM [8, 44]: 102%
activity at 20 µM [9]: 54%
activity at 20 µM [10]: 107%
activity at 20 µM [11]: 115%
activity at 20 µM [12]: 92%
LTP deficit in Aβ42-treated slices [13]: ameliorated the LTP deficit
activity at 20 µM [14]: 70%
activity at 20 µM [15]: 108%
activity at 20 µM [16]: 101%
activity at 20 µM [17]: 96%
activity at 20 µM [18]: 97%
activity at 20 µM [19]: 95%
activity at 20 µM [20]: 102%
activity at 20 µM [21]: 106%
activity at 20 µM [22]: 110%
activity at 20 µM [23]: 77%
activity at 20 µM [24]: 95%
activity at 20 µM [25, 44]: 103%
activity at 20 µM [26]: 96%
activity at 20 µM [27]: 80%
activity at 20 µM [28]: 97%
activity at 20 µM [29]: 94%
activity at 20 µM [30]: 102%
activity at 20 µM [31]: 98%
activity at 20 µM [32]: 104%
activity at 20 µM [33]: 105%
activity at 20 µM [34]: 102%
activity at 20 µM [35]: 102%
activity at 20 µM [36]: 105%
activity at 20 µM [37]: 96%
activity at 20 µM [38]: 95%
activity at 20 µM [39]: 104%
activity at 20 µM [40]: 90%
activity at 20 µM [41]: 103%
visible platform test, speed and time to the platform [42]: No difference was detected between groups
activity at 20 µM [43]: 98%

CN(C)c1cc(-c2ccncc2)c(-c2ccc3ccccc3c2)nn1 [MW108, N, N-dimethyl-6-(naphthalen-2-yl)-5-(pyridin-4-yl)pyridazin-3-amine]
Large Scale Kinome Screen [1]: only p38αMAPK as a potential target
Large Scale Kinome Screen ([1]; listed as MW01-11-108SRM): negative except for p38αMAPK
activity at 20 µM [2]: 102%
activity at 20 µM [3]: 99%
activity at 20 µM [4]: 92%
activity at 20 µM [5]: 76%
activity at 20 µM [6]: 97%
activity at 20 µM [7]: 104%
activity at 20 µM [8]: 98%
activity at 20 µM [9]: 48%
activity at 20 µM [10]: 91%
activity at 20 µM [11]: 99%
activity at 20 µM [12]: 101%
LTP deficit in Aβ42-treated slices [13]: ameliorated the LTP deficit
activity at 20 µM [14]: 70%
activity at 20 µM [15]: 109%
activity at 20 µM [16]: 125%
activity at 20 µM [17]: 93%
activity at 20 µM [18]: 93%
activity at 20 µM [19]: 102%
activity at 20 µM [20]: 95%
activity at 20 µM [21]: 109%
activity at 20 µM [22]: 87%
IC50 [23]: 18.9 µM
activity at 20 µM [23]: 35%
activity at 20 µM [24]: 90%
activity at 20 µM [25]: 114%
activity at 20 µM [26]: 103%
activity at 20 µM [27]: 40%
activity at 20 µM [28]: 87%
activity at 20 µM [29]: 105%
activity at 20 µM [30]: 98%
activity at 20 µM [31]: 91%
activity at 20 µM [32]: 106%
activity at 20 µM [33]: 96%
activity at 20 µM [34]: 109%
activity at 20 µM [35]: 104%
activity at 20 µM [36]: 88%
activity at 20 µM [37]: 97%
activity at 20 µM [38]: 104%
activity at 20 µM [39]: 95%
activity at 20 µM [40]: 99%
activity at 20 µM [41]: 90%
visible platform test, speed and time to the platform [42]: No difference was detected between groups
activity at 20 µM [43]: 98%
